Bridge positions count the residues as written; N and C are the ends. Square brackets hold non-standard residues; d marks the D form. Peptide text beside a SMILES is read from it. Cha = N[C@@H](CC1CCCCC1)C(=O)O; Ala(CN) = N#CC[C@H](N)C(=O)O; Nle = CCCC[C@H](N)C(=O)O; Pra = C#CC[C@H](N)C(=O)O
Assays:
[1] = target: hNav1.7 (Homo sapiens, UniProt Q15858); assay: cell-based; type: cell-based; details: Table 12; PatchXpress, tonic block; read-out: PX hNav1.7 Tonic IC50
[2] = target: hNav1.4 (Homo sapiens, UniProt P35499); assay: cell-based; type: cell-based; details: for IC50: PatchXpress, tonic block, read-out: PX hNav1.4 Tonic IC50; for Nav1.4/Nav1.7: ratio of PX tonic IC50 values
Chain of hNav1.4 (P35499 whole entry): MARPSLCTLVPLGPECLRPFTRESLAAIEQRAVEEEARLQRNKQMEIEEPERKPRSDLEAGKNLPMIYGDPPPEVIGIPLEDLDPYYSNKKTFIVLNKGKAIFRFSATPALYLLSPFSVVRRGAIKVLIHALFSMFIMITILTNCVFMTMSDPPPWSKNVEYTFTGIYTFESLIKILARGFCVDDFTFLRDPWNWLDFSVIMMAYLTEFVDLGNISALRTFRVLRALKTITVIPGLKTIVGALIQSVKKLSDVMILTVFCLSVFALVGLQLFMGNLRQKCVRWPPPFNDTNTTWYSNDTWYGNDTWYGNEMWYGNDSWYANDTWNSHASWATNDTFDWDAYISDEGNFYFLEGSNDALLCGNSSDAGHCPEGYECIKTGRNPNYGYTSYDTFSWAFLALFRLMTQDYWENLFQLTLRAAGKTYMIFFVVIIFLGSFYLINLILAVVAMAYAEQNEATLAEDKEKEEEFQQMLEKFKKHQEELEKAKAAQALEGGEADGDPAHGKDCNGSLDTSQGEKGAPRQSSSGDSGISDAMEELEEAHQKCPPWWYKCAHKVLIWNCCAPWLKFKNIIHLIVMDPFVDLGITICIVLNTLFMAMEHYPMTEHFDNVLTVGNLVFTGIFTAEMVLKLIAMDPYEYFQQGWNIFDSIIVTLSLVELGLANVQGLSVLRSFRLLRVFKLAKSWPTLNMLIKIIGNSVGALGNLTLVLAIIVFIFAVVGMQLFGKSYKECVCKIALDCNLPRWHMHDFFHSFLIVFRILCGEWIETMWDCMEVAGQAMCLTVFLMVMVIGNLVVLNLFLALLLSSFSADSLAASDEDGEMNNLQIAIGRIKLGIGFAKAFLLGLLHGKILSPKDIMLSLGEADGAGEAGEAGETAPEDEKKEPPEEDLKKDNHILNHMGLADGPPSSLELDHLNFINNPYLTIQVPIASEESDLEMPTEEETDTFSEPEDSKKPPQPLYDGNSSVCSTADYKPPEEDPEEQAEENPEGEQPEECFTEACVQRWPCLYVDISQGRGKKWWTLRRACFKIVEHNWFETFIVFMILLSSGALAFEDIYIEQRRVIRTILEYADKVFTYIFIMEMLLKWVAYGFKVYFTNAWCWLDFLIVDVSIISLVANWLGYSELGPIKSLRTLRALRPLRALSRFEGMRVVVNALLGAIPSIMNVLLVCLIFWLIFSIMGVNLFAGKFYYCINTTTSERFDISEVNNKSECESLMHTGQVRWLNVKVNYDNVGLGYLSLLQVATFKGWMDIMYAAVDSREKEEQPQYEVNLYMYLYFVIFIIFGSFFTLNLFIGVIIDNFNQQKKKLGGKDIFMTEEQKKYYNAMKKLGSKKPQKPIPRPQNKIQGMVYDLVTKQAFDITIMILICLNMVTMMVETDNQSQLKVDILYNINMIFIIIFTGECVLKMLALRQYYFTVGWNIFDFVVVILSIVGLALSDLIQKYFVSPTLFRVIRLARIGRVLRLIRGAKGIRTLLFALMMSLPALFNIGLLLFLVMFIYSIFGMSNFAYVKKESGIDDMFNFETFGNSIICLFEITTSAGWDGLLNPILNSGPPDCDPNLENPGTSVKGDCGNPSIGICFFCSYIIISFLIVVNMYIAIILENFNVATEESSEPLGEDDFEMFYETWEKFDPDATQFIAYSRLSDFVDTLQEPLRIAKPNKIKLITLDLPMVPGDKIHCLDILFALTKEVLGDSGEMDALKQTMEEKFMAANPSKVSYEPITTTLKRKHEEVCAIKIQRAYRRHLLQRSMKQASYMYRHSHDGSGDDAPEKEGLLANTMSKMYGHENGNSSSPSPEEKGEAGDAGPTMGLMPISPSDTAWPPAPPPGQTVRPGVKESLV

Chain of hNav1.7 (Q15858 whole entry): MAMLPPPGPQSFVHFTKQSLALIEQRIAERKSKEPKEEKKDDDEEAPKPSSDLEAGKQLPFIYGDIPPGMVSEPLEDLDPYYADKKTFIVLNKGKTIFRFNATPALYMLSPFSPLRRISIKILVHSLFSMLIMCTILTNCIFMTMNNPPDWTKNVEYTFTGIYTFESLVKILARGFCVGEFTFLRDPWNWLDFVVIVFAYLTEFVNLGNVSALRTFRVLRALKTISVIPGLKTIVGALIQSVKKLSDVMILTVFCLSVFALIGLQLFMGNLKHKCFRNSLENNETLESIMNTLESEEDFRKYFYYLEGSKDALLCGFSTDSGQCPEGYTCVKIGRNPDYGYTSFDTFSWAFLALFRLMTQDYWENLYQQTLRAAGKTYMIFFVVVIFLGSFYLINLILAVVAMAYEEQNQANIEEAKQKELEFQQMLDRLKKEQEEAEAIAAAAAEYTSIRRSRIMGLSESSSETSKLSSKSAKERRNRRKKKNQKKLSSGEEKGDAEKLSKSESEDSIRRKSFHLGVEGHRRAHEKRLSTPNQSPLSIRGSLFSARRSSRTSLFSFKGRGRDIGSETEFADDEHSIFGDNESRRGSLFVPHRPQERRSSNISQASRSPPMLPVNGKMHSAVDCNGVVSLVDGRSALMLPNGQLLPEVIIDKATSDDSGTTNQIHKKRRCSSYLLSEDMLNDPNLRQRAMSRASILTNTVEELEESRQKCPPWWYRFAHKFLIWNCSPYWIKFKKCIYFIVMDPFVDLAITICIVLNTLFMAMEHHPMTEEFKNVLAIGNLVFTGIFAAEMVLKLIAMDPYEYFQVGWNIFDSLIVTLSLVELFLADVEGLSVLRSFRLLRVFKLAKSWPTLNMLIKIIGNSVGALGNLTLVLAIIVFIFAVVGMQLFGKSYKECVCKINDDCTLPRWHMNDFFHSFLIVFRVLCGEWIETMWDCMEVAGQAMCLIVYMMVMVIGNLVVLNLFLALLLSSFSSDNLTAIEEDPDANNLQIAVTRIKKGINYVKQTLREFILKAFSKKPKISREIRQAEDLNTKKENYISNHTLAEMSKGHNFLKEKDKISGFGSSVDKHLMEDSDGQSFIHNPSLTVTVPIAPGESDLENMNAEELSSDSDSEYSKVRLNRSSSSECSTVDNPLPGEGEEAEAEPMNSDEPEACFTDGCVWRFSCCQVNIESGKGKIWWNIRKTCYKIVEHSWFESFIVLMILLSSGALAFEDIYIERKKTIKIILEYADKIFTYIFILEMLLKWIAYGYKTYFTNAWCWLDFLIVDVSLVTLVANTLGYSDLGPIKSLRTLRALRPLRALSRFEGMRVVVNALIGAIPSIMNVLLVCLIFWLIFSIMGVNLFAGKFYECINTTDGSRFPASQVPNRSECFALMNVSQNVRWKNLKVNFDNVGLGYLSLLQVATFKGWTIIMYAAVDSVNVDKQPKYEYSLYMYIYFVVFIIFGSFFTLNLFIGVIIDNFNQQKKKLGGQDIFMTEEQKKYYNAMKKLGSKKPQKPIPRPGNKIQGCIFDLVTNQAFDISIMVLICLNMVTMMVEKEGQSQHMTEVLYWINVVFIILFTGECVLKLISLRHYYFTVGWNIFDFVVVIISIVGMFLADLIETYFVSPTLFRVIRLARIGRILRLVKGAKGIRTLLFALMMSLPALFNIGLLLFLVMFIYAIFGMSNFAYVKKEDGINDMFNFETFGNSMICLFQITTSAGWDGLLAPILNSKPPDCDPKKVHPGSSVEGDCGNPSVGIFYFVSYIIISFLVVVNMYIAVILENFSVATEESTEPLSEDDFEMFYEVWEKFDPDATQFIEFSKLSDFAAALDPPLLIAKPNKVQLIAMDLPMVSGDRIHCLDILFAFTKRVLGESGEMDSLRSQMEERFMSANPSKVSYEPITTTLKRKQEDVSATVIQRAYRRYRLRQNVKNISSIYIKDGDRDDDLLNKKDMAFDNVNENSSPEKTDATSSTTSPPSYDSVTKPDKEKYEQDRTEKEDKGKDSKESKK

Row | SMILES | IC50 [1] [nM] | IC50 ([2]; Table 12) [nM] | Nav1.4/Nav1.7 ([2]; Table 12) | Nav1.4/Nav1.7 ([2]; Table 13)
1 | C#CC[C@@H]1NC(=O)[C@@H]2CSSC[C@H](NC(=O)[C@H](CCC(=O)O)NC(=O)[C@@H](N)CC#N)C(=O)N[C@@H](CCC(N)=O)C(=O)N[C@@H](CCCCN)C(=O)N[C@@H](Cc3c[nH]c4ccccc34)C(=O)N[C@@H](CCCC)C(=O)N[C@@H](Cc3c[nH]c4ccccc34)C(=O)N[C@@H]([C@@H](C)O)C(=O)N[C@H]3CSSC[C@H](NC(=O)[C@H](CCCNC(=N)N)NC(=O)[C@H](CC(C)C)NC(=O)CNC1=O)C(=O)N[C@@H](CCCCN)C(=O)N[C@@H](CC(C)C)C(=O)N[C@@H](Cc1c[nH]c4ccccc14)C(=O)N[C@H](C(=O)N[C@@H](CCCNC(=N)N)C(=O)N[C@@H](CCCCN)C(=O)N[C@@H](CCC(=O)O)C(=O)N[C@@H](CC1CCCCC1)C(N)=O)CSSC[C@H](NC(=O)[C@H](C)NC(=O)[C@H](CCCNC(=N)N)NC(=O)[C@H](CCCCN)NC(=O)[C@H](CCC(=O)O)NC(=O)[C@H](CC(=O)O)NC3=O)C(=O)N2 [compound 869] (H-[Ala(CN)]ECQKW[Nle]WTCDEKRACC[Pra]GLRCKLWCRKE[Cha]-NH2; disulfide 3-17, 10-22, 16-26) | 0.95 | 294 | 311 | –
2 | C#CC[C@H](N)C(=O)N[C@@H](Cc1ccc(O)cc1)C(=O)N[C@H]1CSSC[C@@H]2NC(=O)[C@@H]3CSSC[C@@H](C(=O)N[C@@H](CCCNC(=N)N)C(=O)N[C@@H](CCCCN)C(=O)N[C@@H](CCC(=O)O)C(=O)N[C@@H](CC4CCCCC4)C(N)=O)NC(=O)[C@H](Cc4c[nH]c5ccccc45)NC(=O)[C@H](CC(C)C)NC(=O)[C@H](CCCCN)NC(=O)[C@H](CSSC[C@H](NC(=O)[C@H]([C@@H](C)O)NC(=O)[C@H](Cc4c[nH]c5ccccc45)NC(=O)[C@H](CCCC)NC(=O)[C@H](Cc4c[nH]c5ccccc45)NC(=O)[C@H](CCCCN)NC(=O)[C@H](CCC(N)=O)NC1=O)C(=O)N[C@@H](CC(=O)O)C(=O)N[C@@H](CO)C(=O)N[C@@H](CCCCN)C(=O)N[C@@H](CCCNC(=N)N)C(=O)N[C@@H](C)C(=O)N3)NC(=O)[C@H](CCCNC(=N)N)NC(=O)[C@H](CC(C)C)NC(=O)CNC(=O)[C@H](CCC(=O)O)NC2=O [compound 862] | 0.593 | 36.6 | 62 | –
3 | C#CC[C@@H]1NC(=O)[C@@H]2CSSC[C@H](NC(=O)[C@H](Cc3ccc(O)cc3)NC(=O)[C@@H](N)CC#N)C(=O)N[C@@H](CCC(N)=O)C(=O)N[C@@H](CCCCN)C(=O)N[C@@H](Cc3c[nH]c4ccccc34)C(=O)N[C@@H](CCCC)C(=O)N[C@@H](Cc3c[nH]c4ccccc34)C(=O)N[C@@H]([C@@H](C)O)C(=O)N[C@H]3CSSC[C@H](NC(=O)[C@H](CCCNC(=N)N)NC(=O)[C@H](CC(C)C)NC(=O)CNC1=O)C(=O)N[C@@H](CCCCN)C(=O)N[C@@H](CC(C)C)C(=O)N[C@@H](Cc1c[nH]c4ccc(Br)cc14)C(=O)N[C@H](C(=O)N[C@@H](CCCNC(=N)N)C(=O)N[C@@H](CCCCN)C(=O)N[C@H](C(=O)N[C@H](C(N)=O)[C@@H](C)CC)[C@@H](C)CC)CSSC[C@H](NC(=O)[C@H](C)NC(=O)[C@H](CCCNC(=N)N)NC(=O)[C@H](CCCCN)NC(=O)[C@H](CCC(=O)O)NC(=O)[C@H](CC(=O)O)NC3=O)C(=O)N2 [compound 1244] | 0.64 | 7.4 | 12 | –
4 | C#CC[C@H](N)C(=O)N[C@@H](Cc1ccc(O)cc1)C(=O)N[C@H]1CSSC[C@@H]2NC(=O)[C@@H]3CSSC[C@@H](C(=O)N[C@@H](CCCNC(=N)N)C(=O)N[C@@H](CCCCN)C(=O)N[C@H](C(=O)N[C@H](C(N)=O)[C@@H](C)CC)[C@@H](C)CC)NC(=O)[C@H](Cc4c[nH]c5ccccc45)NC(=O)[C@H](CC(C)C)NC(=O)[C@H](CCCCN)NC(=O)[C@H](CSSC[C@H](NC(=O)[C@H]([C@@H](C)O)NC(=O)[C@H](Cc4c[nH]c5ccccc45)NC(=O)[C@H](CCCC)NC(=O)[C@H](Cc4c[nH]c5ccccc45)NC(=O)[C@H](CCCCN)NC(=O)[C@H](CCC(N)=O)NC1=O)C(=O)N[C@@H](CC(=O)O)C(=O)N[C@@H](CO)C(=O)N[C@@H](CCC(=O)O)C(=O)N[C@@H](CCCNC(=N)N)C(=O)N[C@@H](C)C(=O)N3)NC(=O)[C@H](CCCNC(=N)N)NC(=O)[C@H](CC(C)C)NC(=O)CNC(=O)[C@H](CCC(=O)O)NC2=O [compound 730] | 1.19 | 37.2 | 31 | –
5 | C#CC[C@H](N)C(=O)N[C@@H](Cc1ccc(O)cc1)C(=O)N[C@H]1CSSC[C@@H]2NC(=O)[C@@H]3CSSC[C@@H](C(=O)N[C@@H](CCCNC(=N)N)C(=O)N[C@@H](CCCCN)C(=O)N[C@@H](CC(C)C)C(=O)N[C@H](C(N)=O)[C@@H](C)CC)NC(=O)[C@H](Cc4c[nH]c5ccccc45)NC(=O)[C@H](CC(C)C)NC(=O)[C@H](CCCCN)NC(=O)[C@H](CSSC[C@H](NC(=O)[C@H]([C@@H](C)O)NC(=O)[C@H](Cc4c[nH]c5ccccc45)NC(=O)[C@H](CCCC)NC(=O)[C@H](Cc4c[nH]c5ccccc45)NC(=O)[C@H](CCCCN)NC(=O)[C@H](CCC(N)=O)NC1=O)C(=O)N[C@@H](CC(=O)O)C(=O)N[C@@H](CO)C(=O)N[C@@H](CCCCN)C(=O)N[C@@H](CCCNC(=N)N)C(=O)N[C@@H](C)C(=O)N3)NC(=O)[C@H](CCCNC(=N)N)NC(=O)[C@H](CC(C)C)NC(=O)CNC(=O)[C@H](CCC(=O)O)NC2=O [compound 655] | 2.91 | 25.9 | 9 | –
6 | C#CC[C@H](N)C(=O)N[C@@H](Cc1ccc(O)cc1)C(=O)N[C@H]1CSSC[C@@H]2NC(=O)[C@@H]3CSSC[C@@H](C(=O)N[C@@H](CCCNC(=N)N)C(=O)N[C@@H](CCCCN)C(=O)N[C@@H](CCC(=O)O)C(=O)N[C@H](C(N)=O)[C@@H](C)CC)NC(=O)[C@H](Cc4c[nH]c5ccccc45)NC(=O)[C@H](CC(C)C)NC(=O)[C@H](CCCCN)NC(=O)[C@H](CSSC[C@H](NC(=O)[C@H]([C@@H](C)O)NC(=O)[C@H](Cc4c[nH]c5ccccc45)NC(=O)[C@H](CCCC)NC(=O)[C@H](CCc4ccc(Br)cc4)NC(=O)[C@H](CCCCN)NC(=O)[C@H](CCC(N)=O)NC1=O)C(=O)N[C@@H](CC(=O)O)C(=O)N[C@@H](CO)C(=O)N[C@@H](CCCCN)C(=O)N[C@@H](CCCNC(=N)N)C(=O)N[C@@H](C)C(=O)N3)NC(=O)[C@H](CCCNC(=N)N)NC(=O)[C@H](CC(C)C)NC(=O)CNC(=O)[C@H](CCC(=O)O)NC2=O [compound 1603] | 0.23 | 47.9 | 207 | –
7 | C#CC[C@@H]1NC(=O)[C@@H]2CSSC[C@H](NC(=O)[C@H](Cc3ccc(O)cc3)NC(=O)[C@@H](N)CC#N)C(=O)N[C@@H](CCC(N)=O)C(=O)N[C@@H](CCCCN)C(=O)N[C@@H](Cc3c[nH]c4ccccc34)C(=O)N[C@@H](CCCC)C(=O)N[C@@H](Cc3c[nH]c4ccccc34)C(=O)N[C@@H]([C@@H](C)O)C(=O)N[C@H]3CSSC[C@H](NC(=O)[C@H](CCC(=O)O)NC(=O)[C@H](CC(C)C)NC(=O)CNC1=O)C(=O)N[C@@H](CCCCN)C(=O)N[C@@H](CC(C)C)C(=O)N[C@@H](Cc1c[nH]c4ccccc14)C(=O)N[C@H](C(=O)N[C@@H](CCCNC(=N)N)C(=O)N[C@@H](CCCCN)C(=O)N[C@H](C(=O)N[C@H](C(N)=O)[C@@H](C)CC)[C@@H](C)CC)CSSC[C@H](NC(=O)[C@H](C)NC(=O)[C@H](CCCNC(=N)N)NC(=O)[C@H](CCCCN)NC(=O)[C@H](CO)NC(=O)[C@H](CC(=O)O)NC3=O)C(=O)N2 [compound 396] | 2.84 | 278 | 98 | –
8 | CCCC[C@@H]1NC(=O)[C@H](Cc2c[nH]c3ccccc23)NC(=O)[C@H](CCCCN)NC(=O)[C@H](CCC(N)=O)NC(=O)[C@@H](NC(=O)[C@H](Cc2ccc(O)cc2)NC(=O)[C@@H](N)Cc2cn(CCOCCOCCOCCOCCOCCOCCOCCOCCOCCOCCOCCOCCOCCOCCOCCOCCOCCOCCOCCOCCOCCOCCOCCNC(=O)c3cc(CN)cc(C(=O)NCCOCCOCCOCCOCCOCCOCCOCCOCCOCCOCCOCCOCCOCCOCCOCCOCCOCCOCCOCCOCCOCCOCCOCCn4cc(C[C@H](N)C(=O)N[C@@H](Cc5ccc(O)cc5)C(=O)N[C@H]5CSSC[C@@H]6NC(=O)[C@@H]7CSSC[C@@H](C(=O)N[C@@H](CCCNC(=N)N)C(=O)N[C@@H](CCCCN)C(=O)N[C@@H](CCC(=O)O)C(=O)N[C@H](C(N)=O)[C@@H](C)CC)NC(=O)[C@H](Cc8c[nH]c9ccccc89)NC(=O)[C@H](CC(C)C)NC(=O)[C@H](CCCCN)NC(=O)[C@H](CSSC[C@H](NC(=O)[C@H]([C@@H](C)O)NC(=O)[C@H](Cc8c[nH]c9ccccc89)NC(=O)[C@H](CCCC)NC(=O)[C@H](Cc8c[nH]c9ccccc89)NC(=O)[C@H](CCCCN)NC(=O)[C@H](CCC(N)=O)NC5=O)C(=O)N[C@@H](CC(=O)O)C(=O)N[C@@H](CO)C(=O)N[C@@H](CCCCN)C(=O)N[C@@H](CCCNC(=N)N)C(=O)N[C@@H](C)C(=O)N7)NC(=O)[C@H](CCCNC(=N)N)NC(=O)[C@H](CC(C)C)NC(=O)CNC(=O)[C@H](CCC(=O)O)NC6=O)nn4)c3)nn2)CSSC[C@@H]2NC(=O)[C@@H]3CSSC[C@@H](C(=O)N[C@@H](CCCNC(=N)N)C(=O)N[C@@H](CCCCN)C(=O)N[C@@H](CCC(=O)O)C(=O)N[C@H](C(N)=O)[C@@H](C)CC)NC(=O)[C@H](Cc4c[nH]c5ccccc45)NC(=O)[C@H](CC(C)C)NC(=O)[C@H](CCCCN)NC(=O)[C@H](CSSC[C@H](NC(=O)[C@H]([C@@H](C)O)NC(=O)[C@H](Cc4c[nH]c5ccccc45)NC1=O)C(=O)N[C@@H](CC(=O)O)C(=O)N[C@@H](CO)C(=O)N[C@@H](CCCCN)C(=O)N[C@@H](CCCNC(=N)N)C(=O)N[C@@H](C)C(=O)N3)NC(=O)[C@H](CCCNC(=N)N)NC(=O)[C@H](CC(C)C)NC(=O)CNC(=O)[C@H](CCC(=O)O)NC2=O [Homodimeric Conjugate No. 7] | – | – | – | 94

From patent publication US10344060B2 (priority 2013, dated 2019)
